Blank lines part the entries; values can stand above or below the molecule they belong to. Positions of bridges follow the written chain, without caps; N, C: chain ends. Residues, ends and D or L forms follow the SMILES beside them.
Experiments:
[1] = hemolymph extracted from 4-days old mated females, in 100 mM Tris buffer, pH 8.0; details: D. melanogaster, 37° C., up to 60 min
[2] = mated female hemolymph (50 D. melanogaster female-equivalents); details: 37° C., up to 40 min
Elastase = Elastase from porcine pancreas in 100 mM Tris buffer, pH 8.0; details: 37° C., up to 60 min
[3] = system: trypsin activity of mated female hemolymph; test: Trypsin inhibition assay: cleavage of N-Bnz-R-pna by mated female hemolymph; format: biochemical, Drosophila melanogaster; details: 20 min pre-incubation, with DTT
Method: Hemolymph sample preparation. Hemolymph from batches of 250 unmated or mated females was extracted 4 days after eclosion as in Lung and Wolfner (1999). Briefly, groups of 5 flies, punctured in the prothorax, were placed head down in chilled Eppendorf tubes (0.5 ml tube pierced in the bottom and inserted into intact 1.5 ml tubes) and centrifuged at 4° C. Tubes were inspected for presence of fat body. Ten μl of 100 mM Tris buffer, pH 8.0, was added to the first tube, and then the collected hemolymph plus Tris from tube 1 was transferred from this tube to the next tube and so on, in to pool hemolymph extracted from unmated or mated female flies.
Protease and inhibition assays. Protease activity in D. melanogaster female hemolymph was assayed using chromogenic substrates. […]
Commercial enzymes (response controls of the specific reaction mixture) were dissolved in 100 mM Tris buffer, pH 8.0, at a concentration of 5 μg/μl. […] Activity was recorded as increase in absorbance, due to the release of 4-nitroaniline, as measured using an ELISA reader with 405 nm filter in an ELISA Plate Reader (ELx800, Bio-Tek Instruments). Values are relative absorbance readings, obtained with equal fly-equivalents of hemolymph as source of protease. […] Hemolymph protein content was measured spectroscopically at 280 nm, and was 0.5-1 μg per female. […]

D. melanogaster females [4] = test: Receptivity assay, ectopic expression in unmated females by heat-inducible GAL4 driver (hsp70-GAL4); format: in vivo, Drosophila melanogaster; details: for duration of rejection behavior (kicking and extruding ovipositor): days examined
Method: Heat shock. Transgenic unmated females carrying the mutated T-SP (hsp70-GAL4; UAS-T-SPX) were placed in empty vials supplemented with moisture filter paper. Files were placed in water bath and heated gradually from 25 to 37° C. Flies were kept at this temperature for 1 hr thereafter returned to room temperature for one hour for recovery. Recovered heat-shocked flies were placed in food vials and kept at 25° C. until used.
(§1) Receptivity assay. Single unmated females of each homogenous UAS-T-SP transgene (see also Table 2) were placed in a food vial with single unmated 3-5-day-old males of the same UAS-T-SP transgene. Two parameters were monitored for one hour: (i) Receptivity rate—the number of female that mated; (ii) courtship behavior—whether or not female performed a rejection behaviors (kicking and extruding their ovipositor). […] For that a group of 10 females were isolated from each group and their behavior was inspected. […] These females will be exposed in the next day to newly unmated 3-5-day-old males (see section developing bioassay for additional details).
To examine the effect of the modified T-SP on female receptivity we first developed a sensitive bioassay that provided optimal conditions to test the transgenes. […] We examined two independent lines to determine the effect of exposure to one or two males and whether a window of one hour would be sensitive enough to detect changes in female behavior. Four-day-old unmated females were placed with one or two males in a fresh food vial and their behavior was documented. Mated females were separated from males and left in the food vials. Twenty four hours later the females were re-exposed to unmated 3-day-old males and inspected for mating encounter and courting behavior for 1 hour. […] About 50% of the females re-mated after 4 to 5 days (FIGS. 7A-B).
Since a change in the willingness of the female to mate is expressed in their behavior, we next developed a qualitative behavioral bioassay. Mated females reject the courting males by extruding their ovipositor toward the male and/or by kicking the courting male. Theses behaviors are not seen in unmated females. We set up a system in which we inspected whether or not the female kicks the male and extrudes her ovipositor toward the male (see material and methods), both of which are predictors of female receptivity status.

D. melanogaster females [5] = test: Receptivity assay, peptide expressed in male accessory glands and transferred to the female during mating; format: in vivo, Drosophila melanogaster; details: transgene received from male seminal fluid, FIG. 14
Description: Transgenic flies. The GAL4-UAS system, first described by Brand and Perrimon (1993), was used for transgenesis of D. melanogaster. Briefly, T-SP was cloned into the pUAST vector, which bears an upstream activating sequence (UAS) site able to bind to the yeast transcription factor GAL4. Two separate fly lines are reared, the one (UAS) bearing the gene(s) to be transcribed and a chosen promoter (target line), the second being the GAL4 activating line. By select and controlled crossing of these two parent lines, the transgene, in this case T-SP or its amino-acid substituted homolog, is activated and expressed in the filial generation, at different times during development, and/or in select tissues, dependent on the promoter and inducer utilized. In this case, the GAL4 gene is under the control of the accessory gland specific promoter 26Aa that is induced only in the accessory glands (Park et al., 1994).
RT-PCR. Expression was induced by a heat-inducible GAL4 driver (hsp70-GAL4), or with the Acp26Aa GAL4 driver (Acp26Aa-GAL4) which, restricts expression to the male accessory glands exclusively. To verify the expression of T-SP, groups of 10 heat-shocked females were taken at different time post-heat-shock, placed in Eppendorf tubes, quick-frozen in liquid nitrogen and kept at −80° C. until subject to RNA extraction. mRNA extraction was performed with Dynabeads (Invitrogen) according to the manufacturer's instructions.
as §1, with “details). […]” for “details).”

[6] = system: CA of young unmated female C. capitata; test: In-vitro synthesis of JHB3 by the corpus allatum; design: species or system Ceratitis capitata; details: DrmSP with its N-terminal motif
[7] = format: in vitro ADME, Drosophila melanogaster
Method: Liquid Chromatography—Mass Spectrometery (LC-MS/MS). Hemolymph was prepared as described in section 2.3, except that 50 D. melanogaster female-equivalents of unmated or mated female flies were used for 30 min incubations with 20 μg of T-SP. Reactions were terminated and processed as detailed in section 2.5. The supernatants of the methanol precipitations were lyophilized and resuspended by sonication in 100 μl of loading buffer (5% acetonitrile, 0.1% formic acid) and analyzed by LC-MS/MS. Briefly, the peptide mixtures were run in an Agilent 1100 series micro-flow HPLC system (Agilent Technologies, Inc., Palo Alto, Calif.) coupled to an Esquire-HCT ion trap mass spectrometer through the online nano-ESI ion source (Broker Daltonik GmbH, Bremen). Peptides were separated on a Protein-15-C18-150 microbore column (Micro-Tech Scientific, Cousteau, Court Vista, Calif.) using a 5% to 30% gradient of acetonitrile in 0.1% formic acid for 37 min at […], at a flow rate of 1 μl/min. MS and MS2 spectra were acquired in a data-driven way with parameters optimized for peptide mixture analysis. The resulting MS/MS chromatograms were processed by the DataAnalysis 3.1 application and further analysed with BioTools 2.2 (Broker Daltonik GmbH, Bremen) and MASCOT (Matrix Science), assuming the unknown specificity of the hemolymph protease. A 95% confidence interval was set as threshold. […]

[8] = hsp70-GAL4 driver, FIG. 10, wild-type threshold 4-5 days
[9] = other independent lines, FIG. 11, n=20

Molecule: N-Succinyl-Ala-Ala-Ala-pna
not cleaved [1]: elastase activity was not observed

Molecule: KPTKFPIPSPNPRDKWCRLNLGPAWGGRC
cleaved bond [2]: R25-L26, major, 30 min

cleaved bond (Elastase): V-pna
Molecule: N-Succinyl-Ala-Ala-Val-pna
cleaved bond [1]: V-pna

Molecule: Cc1ccc(S(=O)(=O)N[C@@H](CCCCN)C(=O)CCl)cc1.Cl [TLCK, Na-p-Tosyl-L-lysine chloromethyl ketone hydrochloride]
reduced cleavage of N-Bnz-R-pna ([3]; TLCK 1 mM final): 40%

Molecule: Z-Gly-Gly-Leu-p-Nitroanilide
not cleaved [1]: Neither chymotrypsin nor subtilisin activity were evident

Molecule: T-SPQ: T-SP with arginine at position 25 substituted with glutamine, KPTKFPIPSPNPRDKWCQLNLGPAWGGRC (SEQ ID NO: 12); expressed transgenically
duration of induced female non-receptivity (D. melanogaster females [4]; [8]): 8 days
duration of rejection behavior (kicking and extruding ovipositor) (D. melanogaster females [4]; hsp70-GAL4 driver): 8 days
duration of induced female non-receptivity (D. melanogaster females [4]; [9]): 8 days
percentage of re-mating compared with T-SP (D. melanogaster females [5]): lower percentages
time at which females commenced re-mating after the first mating (D. melanogaster females [5]): 5 days

Molecule: DrmSP: Drosophila melanogaster Sex Peptide; mature form a linear peptide of 36 amino acids with an S-S bridge
effect on in-vitro synthesis of JHB3 [6]: depresses

Molecule: N-Succinyl-Ala-Ala-Pro-Leu-pna
cleaved bond [1]: L-pna

Molecule: N-Succinyl-Ala-Ala-Pro-Ile-pna
cleaved bond [1]: I-pna

number of different fragments yielded [7]: 11
number of fragments obtained [7]: five
Molecule: CC[C@H](C)[C@H](NC(=O)[C@@H]1CCCN1C(=O)[C@H](Cc1ccccc1)NC(=O)[C@H](CCCCN)NC(=O)[C@@H](NC(=O)[C@@H]1CCCN1C(=O)[C@@H](N)CCCCN)[C@@H](C)O)C(=O)N1CCC[C@H]1C(=O)N[C@@H](CO)C(=O)N1CCC[C@H]1C(=O)N[C@@H](CC(N)=O)C(=O)N1CCC[C@H]1C(=O)N[C@@H](CCCNC(=N)N)C(=O)N[C@@H](CC(=O)O)C(=O)N[C@@H](CCCCN)C(=O)N[C@@H](Cc1c[nH]c2ccccc12)C(=O)N[C@H]1CSSC[C@@H](C(=O)O)NC(=O)[C@H](CCCNC(=N)N)NC(=O)CNC(=O)CNC(=O)[C@H](Cc2c[nH]c3ccccc23)NC(=O)[C@H](C)NC(=O)[C@@H]2CCCN2C(=O)CNC(=O)[C@H](CC(C)C)NC(=O)[C@H](CC(N)=O)NC(=O)[C@H](CC(C)C)NC(=O)[C@H](CCCNC(=N)N)NC1=O [T-SP] (H-KPTKFPIPSPNPRDKWCRLNLGPAWGGRC-OH; disulfide 17-29; N-terminus and C-terminus assumed)
duration of induced female non-receptivity (D. melanogaster females [4]; [8]): 8 days
duration of rejection behavior (kicking and extruding ovipositor) (D. melanogaster females [4]; hsp70-GAL4 driver): 8 days
duration of induced female non-receptivity (D. melanogaster females [4]; [9]): 8 days
time at which females commenced re-mating after the first mating (D. melanogaster females [5]): three

B1: Bowman-Birk inhibitor (protein)
chain: DDESSKPCCDQCACTKSNPPQCRCSDMRLNSCHSACKSCICALSYPAQCFCVDITDFCYEPCKPSEDDKEN
reduced cleavage of N-Bnz-R-pna ([3]; BBI 5 μM final): 78%

— patent US8677934B2 (Yissum Research Development Company of the Hebrew …, priority 2007, dated 2014)
